From US12351580B2, “NLRP3 modulators” (Innate Tumor Immunity, Inc., priority 2017, dated 2025) come the findings set out here.

In the test the target is T1, hNLRP3 (Homo sapiens, UniProt Q96P20).
T1 construct: THP-1 cells were purchased from the American Type Culture Collection; host or cells: THP-1 cells, PMA-differentiated
In words: Measurement of IL-1β production in PMA-differentiated THP-1 cells (hNLRP3 agonist; ELISA, alternative and hTRF procedures). It is filed as cell-based. An outline of the steps:
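Supernatant IL-1β was quantified by ELISA in two procedures and by hTRF (kit antibodies at 1:40) in a third. THP-1 cells were first differentiated with PMA ([…] for 24 h; 20 μg/ml overnight; 50 ng/ml overnight), then incubated in 2% FBS RPMI with compounds for 4 h, 2 h and 2 h, respectively, at 1% DMSO or a 10 μM top concentration.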
(ELISA stands for enzyme-linked immunosorbent assay.)

T1 sequence (Q96P20 whole entry): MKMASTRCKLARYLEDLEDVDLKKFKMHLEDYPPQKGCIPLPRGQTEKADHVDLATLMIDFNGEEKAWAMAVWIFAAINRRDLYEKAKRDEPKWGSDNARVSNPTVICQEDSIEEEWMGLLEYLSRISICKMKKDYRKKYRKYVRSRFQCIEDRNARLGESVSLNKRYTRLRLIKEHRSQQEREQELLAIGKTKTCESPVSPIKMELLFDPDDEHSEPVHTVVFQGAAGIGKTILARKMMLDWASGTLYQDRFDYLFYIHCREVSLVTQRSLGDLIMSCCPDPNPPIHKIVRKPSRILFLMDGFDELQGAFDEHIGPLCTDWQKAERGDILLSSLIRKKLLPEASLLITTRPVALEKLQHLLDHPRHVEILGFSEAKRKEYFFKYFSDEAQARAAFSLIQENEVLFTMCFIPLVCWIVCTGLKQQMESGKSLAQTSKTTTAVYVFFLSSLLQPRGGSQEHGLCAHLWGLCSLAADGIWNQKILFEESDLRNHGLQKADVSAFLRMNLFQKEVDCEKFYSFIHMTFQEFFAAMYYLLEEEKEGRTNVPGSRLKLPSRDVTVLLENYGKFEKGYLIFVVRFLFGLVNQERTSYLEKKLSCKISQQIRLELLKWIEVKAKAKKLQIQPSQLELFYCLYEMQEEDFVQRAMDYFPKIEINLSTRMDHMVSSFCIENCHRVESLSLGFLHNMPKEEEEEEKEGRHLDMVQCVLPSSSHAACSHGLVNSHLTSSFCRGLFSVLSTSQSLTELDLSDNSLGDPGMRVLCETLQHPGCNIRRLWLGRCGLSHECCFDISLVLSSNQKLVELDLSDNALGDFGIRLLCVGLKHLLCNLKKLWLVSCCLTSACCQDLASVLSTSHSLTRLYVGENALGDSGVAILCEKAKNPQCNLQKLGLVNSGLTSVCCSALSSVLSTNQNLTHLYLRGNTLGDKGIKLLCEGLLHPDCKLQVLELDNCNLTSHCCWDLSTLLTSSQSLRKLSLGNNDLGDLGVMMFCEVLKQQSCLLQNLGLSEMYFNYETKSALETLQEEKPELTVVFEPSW

The EC50 is the concentration giving half of the maximal effect. As to `Nc1nc2cc(-c3ccccc3F)ccc2c2[nH]c(CN3CCCC3=O)nc12` [Compound 284, 1-[[4-amino-7-(2-fluorophenyl)-1H-imidazo[4,5-c]quinolin-2-yl]methyl]pyrrolidin-2-one], the EC50 is 860 nM. This counts as sub-micromolar.

`Nc1nc2cc(-c3cccc(Cl)c3)ccc2c2[nH]c(CN3CCCC3=O)nc12` [Compound 285, 1-[[4-amino-7-(3-chlorophenyl)-1H-imidazo[4,5-c]quinolin-2-yl]methyl]pyrrolidin-2-one] had an EC50 of 5700 nM.

For the molecule `Cc1cccc(-c2ccc3c(c2)nc(N)c2nc(CN4CCCC4=O)[nH]c23)c1` [Compound 286, 1-[[4-amino-7-(3-methylphenyl)-1H-imidazo[4,5-c]quinolin-2-yl]methyl]pyrrolidin-2-one], the EC50 came out at 610 nM.

`COc1cccc(-c2ccc3c(c2)nc(N)c2nc(CN4CCCC4=O)[nH]c23)c1` [Compound 287, 1-[[4-amino-7-(3-methoxyphenyl)-1H-imidazo[4,5-c]quinolin-2-yl]methyl]pyrrolidin-2-one] gave an EC50 of 1080 nM.

For the molecule `N#Cc1cccc(-c2ccc3c(c2)nc(N)c2nc(CN4CCCC4=O)[nH]c23)c1` [Compound 288, 3-[4-amino-2-[(2-oxopyrrolidin-l-yl)methyl]-1H-imidazo[4,5-c]quinolin-7-yl]benzonitrile], the EC50 was 10100 nM.

`Nc1nc2cc(-c3cccc(F)c3)ccc2c2[nH]c(CN3CCCC3=O)nc12` [Compound 289, 1-[[4-amino-7-(3-fluorophenyl)-1H-imidazo[4,5-c]quinolin-2-yl]methyl]pyrrolidin-2-one] registered an EC50 of 1580 nM.

For `Cc1ccc(-c2ccc3c(c2)nc(N)c2nc(CN4CCCC4=O)[nH]c23)cc1` [Compound 291, 1-[[4-amino-7-(4-methylphenyl)-1H-imidazo[4,5-c]quinolin-2-yl]methyl]pyrrolidin-2-one], a half-maximal effect (EC50) was put at 110 nM.

Molecule `Nc1nc2cc(Br)ccc2c2[nH]c(CN3CCCC3=O)nc12` [Compound 294, 1-[(4-amino-7-bromo-1H-imidazo[4,5-c]quinolin-2-yl)methyl]pyrrolidin-2-one] returned an EC50 of 4600 nM.

Molecule `Nc1nc2cc(-n3cccn3)ccc2c2[nH]c(CN3CCCC3=O)nc12` [Compound 295, 1-[(4-amino-7-pyrazol-1-yl-1H-imidazo[4,5-c]quinolin-2-yl)methyl]pyrrolidin-2-one] displayed an EC50 of 1200 nM.

`Cc1cnn(-c2ccc3c(c2)nc(N)c2nc(CN4CCCC4=O)[nH]c23)c1` [Compound 296, 1-[[4-amino-7-(4-methylpyrazol-1-yl)-1H-imidazo[4,5-c]quinolin-2-yl]methyl]pyrrolidin-2-one] had an EC50 of 5100 nM.

`Nc1nc2cc(C3CCOCC3)ccc2c2[nH]c(CN3CCCC3=O)nc12` [Compound 298, 1-[[4-amino-7-(oxan-4-yl)-1H-imidazo[4,5-c]quinolin-2-yl]methyl]pyrrolidin-2-one]: the EC50 is 21000 nM.

`Cc1ccn(-c2ccc3c(c2)nc(N)c2nc(CN4CCCC4=O)[nH]c23)n1` [Compound 301, 1-[[4-amino-7-(3-methylpyrazol-1-yl)-1H-imidazo[4,5-c]quinolin-2-yl]methyl]pyrrolidin-2-one] displayed an EC50 of 2930 nM. This EC50 lies about 7.2-fold lower than the previous one.

`Nc1nc2cc(C3CCCCC3)ccc2c2[nH]c(CN3CCCC3=O)nc12` [Compound 302, 1-[(4-amino-7-cyclohexyl-1H-imidazo[4,5-c]quinolin-2-yl)methyl]pyrrolidin-2-one] registered an EC50 of 930 nM.

`CC(c1nc2c(N)nc3cc(Br)ccc3c2[nH]1)N1CCCC1=O` (centres unmarked) [Compound 303, 1-[1-(4-amino-7-bromo-1H-imidazo[4,5-c]quinolin-2-yl)ethyl]pyrrolidin-2-one] registered an EC50 of 11100 nM.
